# Results reported in patent US11208400B2, “Substituted 6-(1H-pyrazol-1-yl)pyrimidin-4-amine derivatives and uses thereof” (Bayer Aktiengesellschaft, priority 2016, dated 2021).
# pIC50: −log10 of the molar value.
# Target: T1, human Npt2a (Homo sapiens, UniProt Q06495)
# T1 construct: expressed in transfected cells
# T1 sequence (Q06495 1-639): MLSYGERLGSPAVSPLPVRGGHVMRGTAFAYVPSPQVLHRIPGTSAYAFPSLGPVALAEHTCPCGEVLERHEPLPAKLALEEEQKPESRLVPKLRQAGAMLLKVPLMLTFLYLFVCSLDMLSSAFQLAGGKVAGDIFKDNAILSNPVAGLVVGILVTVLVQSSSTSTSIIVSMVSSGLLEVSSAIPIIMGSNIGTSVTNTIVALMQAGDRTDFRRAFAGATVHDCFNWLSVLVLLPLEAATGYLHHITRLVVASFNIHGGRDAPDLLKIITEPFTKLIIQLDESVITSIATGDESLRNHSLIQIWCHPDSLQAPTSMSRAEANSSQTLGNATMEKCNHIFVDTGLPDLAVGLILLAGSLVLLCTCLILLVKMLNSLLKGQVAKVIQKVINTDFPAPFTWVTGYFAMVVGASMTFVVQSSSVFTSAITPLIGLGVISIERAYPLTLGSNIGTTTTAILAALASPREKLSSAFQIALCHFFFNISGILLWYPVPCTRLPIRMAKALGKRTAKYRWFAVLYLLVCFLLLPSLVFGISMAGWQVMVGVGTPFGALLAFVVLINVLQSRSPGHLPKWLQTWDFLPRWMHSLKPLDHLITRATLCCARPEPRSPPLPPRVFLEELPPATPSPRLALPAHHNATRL
# Assay: Npt2a activity cell based assay, membrane potential dye, CHO T-REx hNpt2a cells
# Settings: doxycycline-induced, depolarization by sodium phosphate influx, average or median values if tested more than once
# Outline: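 Doxycycline-induced (0.5 μg/mL, 24 h) CHO T-REx cells were loaded with membrane potential dye in sodium-free NHE buffer (pH 7.4) and exposed to compound (50 μM–1 nM, 5 min, room temperature).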
row,SMILES,pIC50
1,"Cc1ccn(-c2cc(Nc3c(C)c(-c4ccc(C#N)cc4)nn3CC3CC3)ncn2)n1 [Example 243, 4-[1-(cyclopropylmethyl)-4-methyl-5-{[6-(3-methyl-1H-pyrazol-1-yl)pyrimidin-4-yl]amino}-1H-pyrazol-3-yl]benzonitrile]",7.55
2,"CCOC(=O)c1c(C)nn(-c2cc(Nc3c(CC)c(-c4ccc(C#N)cc4)nn3CC3CC3)ncn2)c1C [Example 156, ethyl 1-(6-{[3-(4-cyanophenyl)-1-(cyclopropylmethyl)-4-ethyl-1H-pyrazol-5-yl]amino}pyrimidin-4-yl)-3,5-dimethyl-1H-pyrazole-4-carboxylate]",8.70
3,"Cc1nn(-c2cc(Nc3c(C)c(-c4ccc(F)cc4)nn3CC3CC3)ncn2)c(C)c1C(=O)N(C)C [Example 402, 1-(6-{[1-(cyclopropylmethyl)-3-(4-fluorophenyl)-4-methyl-1H-pyrazol-5-yl]amino}pyrimidin-4-yl)-N,N,3,5-tetramethyl-1H-pyrazole-4-carboxamide]",7.26
4,"CCOC(=O)c1c(C)nn(-c2cc(Nc3nn(C)c(-c4ccccc4)c3Cl)ncn2)c1C [Example 81, ethyl 1-{6-[(4-chloro-1-methyl-5-phenyl-1H-pyrazol-3-yl)amino]pyrimidin-4-yl}-3,5-dimethyl-1H-pyrazole-4-carboxylate]",7.96
5,"COc1c(Nc2cc(-n3nc(C)c(C(F)(F)F)c3C)ncn2)nn(C)c1-c1ccc(C#N)cc1 [Example 541, 4-[3-({6-[3,5-dimethyl-4-(trifluoromethyl)-1H-pyrazol-1-yl]pyrimidin-4-yl}amino)-4-methoxy-1-methyl-1H-pyrazol-5-yl]benzonitrile]",6.59
6,"COc1c(Nc2cc(-n3nc(C)c(CC(C)(C)O)c3C)ncn2)nn(C)c1-c1ccc(C#N)cc1 [Example 531, 4-[3-({6-[4-(2-hydroxy-2-methylpropyl)-3,5-dimethyl-1H-pyrazol-1-yl]pyrimidin-4-yl}amino)-4-methoxy-1-methyl-1H-pyrazol-5-yl]benzonitrile]",5.82
7,"Cc1nn(-c2cc(Nc3c(C)c(-c4ccc(C(F)F)cc4)nn3CC3CC3)ncn2)c(C)c1C(O)C1CC1 (single isomer, unassigned) [Example 496, Cyclopropyl {1-[6-({1-(cyclopropylmethyl)-3-[4-(difluoromethyl)phenyl]-4-methyl-1H-pyrazol-5-yl}amino)pyrimidin-4-yl]-3,5-dimethyl-1H-pyrazol-4-yl}methanol]",6.64
8,"CCOC(=O)c1c(Cl)c(C)nn1-c1cc(Nc2nn(C)c(-c3ccc(F)cc3)c2CC)ncn1 [Example 178, ethyl 4-chloro-1-(6-{[4-ethyl-5-(4-fluorophenyl)-1-methyl-1H-pyrazol-3-yl]amino}pyrimidin-4-yl)-3-methyl-1H-pyrazole-5-carboxylate]",7.59
9,"CCc1c(-c2ccc(F)cc2)nn(CC2CC2)c1Nc1cc(-n2nc(C)c3ccncc32)ncn1 [Example 205, N-[1-(cyclopropylmethyl)-4-ethyl-3-(4-fluorophenyl)-1H-pyrazol-5-yl]-6-(3-methyl-1H-pyrazolo[3,4-c]pyridin-1-yl)pyrimidin-4-amine]",7.70
10,"Cc1nn(-c2cc(Nc3c(Cl)c(-c4ccc(F)cc4)nn3CC3CC3)ncn2)c(C(F)F)c1Cl [Example 186, N-[4-chloro-1-(cyclopropylmethyl)-3-(4-fluorophenyl)-1H-pyrazol-5-yl]-6-[4-chloro-5-(difluoromethyl)-3-methyl-1H-pyrazol-1-yl]pyrimidin-4-amine]",7.22
11,"CCOC(=O)c1c(C)nn(-c2cc(Nc3n[nH]c(-c4ccc(F)cc4)c3CC)ncn2)c1C [Example 4, ethyl 1-(6-{[4-ethyl-5-(4-fluorophenyl)-1H-pyrazol-3-yl]amino}pyrimidin-4-yl)-3,5-dimethyl-1H-pyrazole-4-carboxylate]",7.55
12,"COc1c(Nc2cc(-n3nc(C)cc3C)ncn2)nn(C)c1-c1ccc(F)cc1 [Example 253, 6-(3,5-dimethyl-1H-pyrazol-1-yl)-N-[5-(4-fluorophenyl)-4-methoxy-1-methyl-1H-pyrazol-3-yl]pyrimidin-4-amine]",7.17
13,"Cc1ccc(-c2nn(CC3CC3)c(Nc3cc(-n4nc(C)c(C(F)(F)F)c4C)ncn3)c2C)cn1 [Example 455, N-[1-(cyclopropylmethyl)-4-methyl-3-(6-methylpyridin-3-yl)-1H-pyrazol-5-yl]-6-[3,5-dimethyl-4-(trifluoromethyl)-1H-pyrazol-1-yl]pyrimidin-4-amine]",6.78
14,"CCc1c(Nc2cc(-n3nc(C)c(Br)c3C)ncn2)nn(C)c1-c1ccc(F)cc1 [Example 191, 6-(4-bromo-3,5-dimethyl-1H-pyrazol-1-yl)-N-[4-ethyl-5-(4-fluorophenyl)-1-methyl-1H-pyrazol-3-yl]pyrimidin-4-amine]",8.52
15,"COc1c(Nc2cc(-n3nc(C)c4ccncc43)ncn2)n[nH]c1-c1ccc(C#N)cc1 [Example 214, 4-(4-methoxy-3-{[6-(3-methyl-1H-pyrazolo[3,4-c]pyridin-1-yl)pyrimidin-4-yl]amino}-1H-pyrazol-5-yl)benzonitrile]",7.07
16,"Cc1c(-c2ccc(C#N)cc2)nn(CC2CC2)c1Nc1cc(-n2nc(C)c3ccncc32)ncn1 [Example 231, 4-[1-(cyclopropylmethyl)-4-methyl-5-{[6-(3-methyl-1H-pyrazolo[3,4-c]pyridin-1-yl)pyrimidin-4-yl]amino}-1H-pyrazol-3-yl]benzonitrile]",8.70
17,"Cc1cc(C)n(-c2cc(Nc3nn(C)c(-c4ccccc4)c3C)ncn2)n1 [Example 62, N-(1,4-dimethyl-5-phenyl-1H-pyrazol-3-yl)-6-(3,5-dimethyl-1H-pyrazol-1-yl)pyrimidin-4-amine]",6.87
18,"CCOC(=O)c1c(C)nn(-c2cc(Nc3nn(C)c(-c4ccc(F)cc4)c3CC)ncn2)c1C [Example 40, ethyl 1-(6-{[4-ethyl-5-(4-fluorophenyl)-1-methyl-1H-pyrazol-3-yl]amino}pyrimidin-4-yl)-3,5-dimethyl-1H-pyrazole-4-carboxylate]",5.56
19,"COc1c(C)nn(-c2cc(Nc3c(C)c(-c4ccc(C#N)cc4)nn3C)ncn2)c1C [Example 436, 4-(5-{[6-(4-methoxy-3,5-dimethyl-1H-pyrazol-1-yl)pyrimidin-4-yl]amino}-1,4-dimethyl-1H-pyrazol-3-yl)benzonitrile]",8.00
20,"Cc1nn(-c2cc(Nc3c(C)c(-c4ccc(F)cc4)nn3CC3CC3)ncn2)c(C)c1C(O)C(F)(F)F (single isomer, unassigned) [Example 375, 1-[1-(6-{[1-(cyclopropylmethyl)-3-(4-fluorophenyl)-4-methyl-1H-pyrazol-5-yl]amino}pyrimidin-4-yl)-3,5-dimethyl-1H-pyrazol-4-yl]-2,2,2-trifluoroethanol]",7.40
21,"Cc1cc(C(F)F)n(-c2cc(Nc3nn(C)c(-c4ccc(C#N)cc4)c3C)ncn2)n1 [Example 236, 4-[3-({6-[5-(difluoromethyl)-3-methyl-1H-pyrazol-1-yl]pyrimidin-4-yl}amino)-1,4-dimethyl-1H-pyrazol-5-yl]benzonitrile]",8.52
22,"Cc1cc(C)n(-c2cc(Nc3nn(CC4CC4)c(-c4ccc(F)cc4)c3C)ncn2)n1 [Example 169, N-[1-(cyclopropylmethyl)-5-(4-fluorophenyl)-4-methyl-1H-pyrazol-3-yl]-6-(3,5-dimethyl-1H-pyrazol-1-yl)pyrimidin-4-amine]",6.16
23,"COc1c(-c2ccc(C#N)cc2)nn(CC2CC2)c1Nc1cc(-n2nc(C)c(C(C)OC)c2C)ncn1 (racemic) [Example 333, (±)-4-{1-(cyclopropylmethyl)-4-methoxy-5-[(6-{4-[1-methoxyethyl]-3,5-dimethyl-1H-pyrazol-1-yl}pyrimidin-4-yl)amino]-1H-pyrazol-3-yl}benzonitrile]",7.27
24,"Cc1c(-c2ccc(F)cc2)nn(C)c1Nc1cc(-n2cc(C(F)(F)F)cn2)ncn1 [Example 427, N-[3-(4-fluorophenyl)-1,4-dimethyl-1H-pyrazol-5-yl]-6-[4-(trifluoromethyl)-1H-pyrazol-1-yl]pyrimidin-4-amine]",7.82
25,"COCCn1nc(-c2ccc(C#N)cc2)c(C)c1Nc1cc(-n2nc(C)cc2C)ncn1 [Example 555, 4-[5-{[6-(3,5-dimethyl-1H-pyrazol-1-yl)pyrimidin-4-yl]amino}-1-(2-methoxyethyl)-4-methyl-1H-pyrazol-3-yl]benzonitrile]",8.80
26,"Cc1cc(C)n(-c2cc(Nc3nn(C)c(-c4ccc(F)cc4)c3C)ncn2)n1 [Example 73, 6-(3,5-dimethyl-1H-pyrazol-1-yl)-N-[5-(4-fluorophenyl)-1,4-dimethyl-1H-pyrazol-3-yl]pyrimidin-4-amine]",7.80
27,"CCc1c(-c2ccc(F)cc2)nn(C)c1Nc1cc(-n2nc(C)cc2C)ncn1 [Example 12, 6-(3,5-dimethyl-1H-pyrazol-1-yl)-N-[4-ethyl-3-(4-fluorophenyl)-1-methyl-1H-pyrazol-5-yl]pyrimidin-4-amine]",7.30
